Test results: patent US5348946A, “Heteroanthracycline antitumor analogs” (Biochem Immunosystems, Inc., priority 1991, dated 1994)

Tests used:
Format in all cases: cell-based
SNB-19 = assay: in vitro cytotoxicity evaluation, CNS Cancer; settings: Homo sapiens, 48 h, SNB-19, two days, sulforhodamine B
Experimental: (§1) These assays were carried out at the Developmental Therapeutics Program, Division of Cancer Treatment, National Cancer Institute (Bethesda, Md., USA). The method consists of incubating varying concentrations of the drug with an inoculum of cells for two days.
(§2) It should be noted that the first two parameters (GI50 and TGI) relate to antiproliferation effects while the third one (LC50) indicates true cytotoxicity.

SF-539 = assay: in vitro cytotoxicity evaluation, CNS Cancer; settings: Homo sapiens, 48 h, SF-539, two days, sulforhodamine B
Experimental: as §1, §2

SNB-75 = assay: in vitro cytotoxicity evaluation, CNS Cancer; settings: Homo sapiens, 48 h, SNB-75, two days, sulforhodamine B
Experimental: as §1, §2

F498 = assay: in vitro cytotoxicity evaluation, CNS Cancer; settings: Homo sapiens, 48 h, F498, two days, sulforhodamine B
Experimental: as §1, §2

U251 = assay: in vitro cytotoxicity evaluation, CNS Cancer; settings: Homo sapiens, U-251, 48 h, U251, two days, sulforhodamine B
Experimental: as §1, §2

SF-295 = assay: in vitro cytotoxicity evaluation, CNS Cancer; settings: Homo sapiens, 48 h, SF-295, two days, sulforhodamine B
Experimental: as §1, §2

SNB-78 = assay: in vitro cytotoxicity evaluation, CNS Cancer; settings: Homo sapiens, 48 h, SNB-78, two days, sulforhodamine B
Experimental: as §1, §2

SF-268 = assay: in vitro cytotoxicity evaluation, CNS Cancer; settings: Homo sapiens, 48 h, SF-268, two days, sulforhodamine B
Experimental: as §1, §2

LXFL-529L = assay: in vitro cytotoxicity evaluation, Non-Small Cell Lung Cancer; settings: Homo sapiens, 48 h, two days, sulforhodamine B
Experimental: as §1, §2

A-549/ATCC = assay: as above; settings: Homo sapiens, A549, 48 h, two days, sulforhodamine B
Experimental: as §1, §2

FKVX = assay: as above; settings: Homo sapiens, 48 h, two days, sulforhodamine B
Experimental: as §1, §2

HOP-18 = assay: as above; settings: Homo sapiens, 48 h, HOP-18, two days, sulforhodamine B
Experimental: as §1, §2

NCI=H322M = assay: as above; settings: Homo sapiens, 48 h, two days, sulforhodamine B
Experimental: as §1, §2

NCI-H23 = assay: as above; settings: Homo sapiens, 48 h, NCI-H23, two days, sulforhodamine B
Experimental: as §1, §2

NCI-H226 = assay: as above; settings: Homo sapiens, 48 h, NCI-H226, two days, sulforhodamine B
Experimental: as §1, §2

NCI-H460 = assay: as above; settings: Homo sapiens, 48 h, NCI-H460, two days, sulforhodamine B
Experimental: as §1, §2

OVCAR-4 = assay: in vitro cytotoxicity evaluation, Ovarian Cancer; settings: Homo sapiens, 48 h, OVCAR-4, two days, sulforhodamine B
Experimental: as §1, §2

OVCAR-3 = assay: in vitro cytotoxicity evaluation, Ovarian Cancer; settings: Homo sapiens, 48 h, OVCAR-3, two days, sulforhodamine B
Experimental: as §1, §2

OVCAR-8 = assay: in vitro cytotoxicity evaluation, Ovarian Cancer; settings: Homo sapiens, 48 h, OVCAR-8, two days, sulforhodamine B
Experimental: as §1, §2

SK-OV-3 = assay: in vitro cytotoxicity evaluation, Ovarian Cancer; settings: Homo sapiens, 48 h, SK-OV-3, two days, sulforhodamine B
Experimental: as §1, §2

OVCAR-5 = assay: in vitro cytotoxicity evaluation, Ovarian Cancer; settings: Homo sapiens, 48 h, OVCAR-5, two days, sulforhodamine B
Experimental: as §1, §2

IGROV-1 = assay: in vitro cytotoxicity evaluation, Ovarian Cancer; settings: Homo sapiens, 48 h, IGROV-1, two days, sulforhodamine B
Experimental: as §1, §2

[1] = read-out: LOG10 G150 (GI50) (converted)
[2] = read-out: Log10 LC50 (converted)
[3] = read-out: Log10 TGI (converted)

Structure (SMILES): COc1c2c(c(OC)c3c(=O)c4ccccc4sc13)CS(=O)(=O)[C@@H]2O[C@H]1C[C@H](N)[C@H](O)[C@H](C)O1 [BCH-255, (1S ) 1-daunosamine-4-11-dimethoxy-5-oxo-5-H-1,3-dihydrothioxantheno [2,3-c] thiophene-2,2-dioxide]
- GI50 (SNB-19; [1]): 30.9 µM
- CC50 (SNB-19; [2]): > 100 µM
- IC (total growth inhibition (TGI)) (SNB-19; read-out: Log10 TGI): > 100 µM
- GI50 (SF-539; [1]): 17.4 µM
- CC50 (SF-539; [2]): 57.5 µM
- IC (total growth inhibition (TGI)) (SF-539; [3]): 31.6 µM
- GI50 (SNB-75; [1]): 15.8 µM
- CC50 (SNB-75; [2]): 57.5 µM
- IC (total growth inhibition (TGI)) (SNB-75; [3]): 30.2 µM
- GI50 (F498; [1]): 16.6 µM
- CC50 (F498; [2]): 58.9 µM
- IC (total growth inhibition (TGI)) (F498; [3]): 31.6 µM
- GI50 (U251; [1]): 17.4 µM
- CC50 (U251; [2]): 56.2 µM
- IC (total growth inhibition (TGI)) (U251; [3]): 31.6 µM
- GI50 (SF-295; [1]): 16.2 µM
- CC50 (SF-295; [2]): 63.1 µM
- IC (total growth inhibition (TGI)) (SF-295; [3]): 32.4 µM
- GI50 (SNB-78; [1]): 20.4 µM
- CC50 (SNB-78; [2]): 91.2 µM
- IC (total growth inhibition (TGI)) (SNB-78; [3]): 42.7 µM
- GI50 (SF-268; [1]): 20.9 µM
- CC50 (SF-268; [2]): > 100 µM
- IC (total growth inhibition (TGI)) (SF-268; [3]): 52.5 µM
- GI50 (LXFL-529L; [1]): 17 µM
- CC50 (LXFL-529L; [2]): 57.5 µM
- IC (total growth inhibition (TGI)) (LXFL-529L; [3]): 31.6 µM
- GI50 (A-549/ATCC; [1]): 19.5 µM
- CC50 (A-549/ATCC; [2]): 69.2 µM
- IC (total growth inhibition (TGI)) (A-549/ATCC; [3]): 36.3 µM
- GI50 (FKVX; [1]): 25.7 µM
- CC50 (FKVX; [2]): 93.3 µM
- IC (total growth inhibition (TGI)) (FKVX; [3]): 49 µM
- GI50 (HOP-18; read-out: LOG10 G150 (GI50)): > 100 µM
- CC50 (HOP-18; [2]): > 100 µM
- IC (total growth inhibition (TGI)) (HOP-18; read-out: Log10 TGI): > 100 µM
- GI50 (NCI=H322M; [1]): 19.1 µM
- CC50 (NCI=H322M; [2]): 100 µM
- IC (total growth inhibition (TGI)) (NCI=H322M; read-out: Log10 TGI): 43.7 µM
- GI50 (NCI-H23; [1]): 50.1 µM
- CC50 (NCI-H23; [2]): > 100 µM
- IC (total growth inhibition (TGI)) (NCI-H23; read-out: Log10 TGI): > 100 µM
- GI50 (NCI-H226; [1]): 20 µM
- CC50 (NCI-H226; [2]): 83.2 µM
- IC (total growth inhibition (TGI)) (NCI-H226; [3]): 40.7 µM
- GI50 (NCI-H460; [1]): 20.4 µM
- LC50 (concentration killing 50% of cells) (NCI-H460; [2]): 79.4 µM
- IC (total growth inhibition (TGI)) (NCI-H460; [3]): 39.8 µM
- GI50 (OVCAR-4; [1]): 18.2 µM
- CC50 (OVCAR-4; [2]): 64.6 µM
- IC (total growth inhibition (TGI)) (OVCAR-4; [3]): 34.7 µM
- GI50 (OVCAR-3; [1]): 15.5 µM
- CC50 (OVCAR-3; [2]): 64.6 µM
- IC (total growth inhibition (TGI)) (OVCAR-3; [3]): 31.6 µM
- GI50 (OVCAR-8; [1]): 19.5 µM
- CC50 (OVCAR-8; [2]): 74.1 µM
- IC (total growth inhibition (TGI)) (OVCAR-8; [3]): 38 µM
- GI50 (SK-OV-3; [1]): 19.1 µM
- CC50 (SK-OV-3; [2]): 85.1 µM
- IC (total growth inhibition (TGI)) (SK-OV-3; [3]): 40.7 µM
- GI50 (OVCAR-5; [1]): 39.8 µM
- CC50 (OVCAR-5; [2]): > 100 µM
- IC (total growth inhibition (TGI)) (OVCAR-5; read-out: Log10 TGI): > 100 µM
- GI50 (IGROV-1; [1]): 16.6 µM
- CC50 (IGROV-1; [2]): 87.1 µM
- IC (total growth inhibition (TGI)) (IGROV-1; [3]): 38 µM
